In assay [1] the test system is Influenza strain A549 A/WSN/33 (H1N1). Nature of the assay: Influenza Antiviral Assay. It counts as cell-based, Influenza A virus. The settings on record: Influenza A virus, A549, 20 h, neuraminidase fluorescence readout, read-out: % Inhibition.
The target in a further assay is EN PA (Influenza A virus, UniProt P15659). Kind of assay: EN PA FRET Inhibition Assay. The settings on record: read-out: Potency. It counts as biochemical.

As to `CNC(=O)c1nn(CC2(c3ccc(Cl)c(Cl)c3)CCCC2)cc(O)c1=O` [Compound 752], in assay [1], the EC50 is under 20 µM. Moreover, at EN PA, the IC50 is under 100 nM.

Turning to `CCNC(=O)c1nn(CC2(n3cc(Cl)c4cccnc43)CCCC2)cc(O)c1=O` [Compound 753], the EC50 in assay [1] was under 20 µM. The IC50 on EN PA is under 100 nM.

For the compound `CNC(=O)c1nn(CC2(n3ccc4cc(C5CC5)cnc43)CCCC2)cc(O)c1=O` [Compound 754], the EC50 in assay [1] is under 20 µM. The IC50 on EN PA was under 100 nM.

As for `CCCc1cnc2c(ccn2C2(Cn3cc(O)c(=O)c(C(=O)NC)n3)CCCC2)c1` [Compound 755], in assay [1], the EC50 is under 20 µM. Also, the IC50 at EN PA was under 100 nM.

Turning to `CCCNC(=O)c1nn(CC2(n3cc(C)c4cccnc43)CCCC2)cc(O)c1=O` [Compound 756], in assay [1], the EC50 is under 20 µM. For the same compound, the IC50 on EN PA was under 100 nM.

Consider `Cc1cn(C2(Cn3cc(O)c(=O)c(C(=O)NCc4ccc(F)c(Cl)c4)n3)CCCC2)c2ncccc12` [Compound 757], for which, in assay [1], the EC50 is under 20 µM. Moreover, the IC50 at EN PA was under 100 nM.

With `NC(=O)c1nn(CC2(n3cc(Cl)c4cccnc43)CCCC2)cc(O)c1=O` [Compound 758], the EC50 in assay [1] was under 20 µM. The IC50 at EN PA is under 100 nM.

Consider `Cc1cn(C2(Cn3cc(O)c(=O)c(C(=O)NCCCO)n3)CCCC2)c2ncccc12` [Compound 759], for which the EC50 in assay [1] is under 20 µM. Moreover, at EN PA, the IC50 was under 100 nM.

Regarding `O=C(NCC1CC1)c1nn(CC2(n3cc(Cl)c4cccnc43)CCCC2)cc(O)c1=O` [Compound 760], in assay [1], the EC50 was under 20 µM. In addition, the IC50 on EN PA is under 100 nM.

`Cc1cn(C2(Cn3cc(O)c(=O)c(C(=O)NCCO)n3)CCCC2)c2ncccc12` [Compound 761]: in assay [1], the EC50 was under 20 µM. Moreover, at EN PA, the IC50 is under 100 nM.

With `C=Cc1ccc(C2(Cn3cc(O)c(=O)c(C(=O)NC)n3)CCCC2)cc1` [Compound 762], the EC50 in assay [1] is under 20 µM. Besides, at EN PA, the IC50 was under 100 nM.

Turning to `CNC(=O)c1nn(CC2(n3cc(C)c4cccnc43)CCCC2)cc(OC(=O)OCC(C)C)c1=O` [Compound 764], the EC50 in assay [1] was under 20 µM. In addition, at EN PA, the IC50 is under 100 nM.

Take `CNC(=O)c1nn(CC2(n3cc(C)c4cccnc43)CCCC2)cc(OC(=O)N(C)C)c1=O` [Compound 765]: the EC50 in assay [1] lay in the range of 20 to 100 µM. The IC50 at EN PA was at least 1000 nM.

For the compound `CC(C)(C)NC(=O)c1nn(CC2(n3cc(Cl)c4cccnc43)CCCC2)cc(O)c1=O` [Compound 766], in assay [1], the EC50 is under 20 µM. Further, on EN PA, the IC50 was under 100 nM.

For the compound `CNC(=O)c1nn(CC2(c3cc(Cl)cc(C(F)(F)F)c3)CCCC2)cc(O)c1=O` [Compound 768], the EC50 in assay [1] was under 20 µM. The IC50 on EN PA was under 100 nM.

As to `C[C@@H](NC(=O)c1nn(CC2(n3cc(Cl)c4cccnc43)CCCC2)cc(O)c1=O)C(F)(F)F` [Compound 771], the EC50 in assay [1] was under 20 µM. Further, the IC50 at EN PA is 100 to 1000 nM.

As for `C[C@H](NC(=O)c1nn(CC2(n3cc(Cl)c4cccnc43)CCCC2)cc(O)c1=O)C(F)(F)F` [Compound 772], in assay [1], the EC50 is under 20 µM. The IC50 at EN PA lay in the range of 100 to 1000 nM.

In the case of `Cc1cn(C2(Cn3cc(O)c(=O)c(C(=O)N4CCC4)n3)CCCC2)c2ncccc12` [Compound 773], the EC50 in assay [1] is under 20 µM. For the same compound, at EN PA, the IC50 is under 100 nM.

For the compound `CON(C)C(=O)c1nn(CC2(n3cc(C)c4cccnc43)CCCC2)cc(O)c1=O` [Compound 774], the EC50 in assay [1] is under 20 µM. Further, the IC50 at EN PA is under 100 nM.

Turning to `CCOC(=O)Oc1cn(CC2(n3cc(C)c4cccnc43)CCCC2)nc(C(=O)NC)c1=O` [Compound 775], the EC50 in assay [1] is under 20 µM. In addition, the IC50 on EN PA is under 100 nM.

As to `CNC(=O)c1nn(CC2(c3ccccc3)CCC(C)(C)C2)cc(O)c1=O` (stereo not shown) [Compound 776], the EC50 in assay [1] is under 20 µM. Besides, the IC50 at EN PA was under 100 nM.

With `CNC(=O)c1nn(CC2(c3ccc4ccccc4c3)CCCC2)cc(O)c1=O` [Compound 777], the EC50 in assay [1] was under 20 µM. Besides, the IC50 at EN PA is under 100 nM.

Take `CNC(=O)c1nn(CC2(c3ccccc3)CC(C)(C)C2)cc(O)c1=O` [Compound 778]: the EC50 in assay [1] fell in the range of 20 to 100 µM. Besides, the IC50 at EN PA is under 100 nM.

Turning to `Cc1c(O)c(=O)c(C(=O)O)nn1CCc1ccccc1` [Compound 782], in assay [1], the EC50 was over 100 µM. Moreover, on EN PA, the IC50 is under 100 nM.

In the case of `CNC(=O)c1nn(CC2(c3ccc(F)c(C(F)(F)F)c3)CCCC2)cc(O)c1=O` [Compound 783], in assay [1], the EC50 was under 20 µM. In addition, at EN PA, the IC50 is under 100 nM.

As to `O=C(NCc1ccc(F)c(Cl)c1)c1nn(CC2(c3ccc(Cl)c(Cl)c3)CCCC2)cc(O)c1=O` [Compound 784], the EC50 in assay [1] is under 20 µM. At EN PA, the IC50 is 100 to 1000 nM.

On to `CC1(C)CC(Cn2cc(O)c(=O)c(C(=O)O)n2)(c2ccccc2)C1` [Compound 785], for which the EC50 in assay [1] is over 100 µM. Further, the IC50 at EN PA is under 100 nM.

For the compound `CC1(C)CCC(Cn2cc(O)c(=O)c(C(=O)O)n2)(c2ccccc2)C1` (stereo not shown) [Compound 786], the EC50 in assay [1] is over 100 µM. In addition, the IC50 at EN PA was under 100 nM.

Regarding `CNC(=O)c1nn(CC2(n3cc(C)c4cccnc43)CCCCC2)cc(O)c1=O` [Compound 788], the EC50 in assay [1] is under 20 µM. Moreover, on EN PA, the IC50 was under 100 nM.

For the compound `CNC(=O)c1nn(CC2(n3cc(C)c4cccnc43)CCCC2)cc(OC(=O)OC(C)(C)C)c1=O` [Compound 789], in assay [1], the EC50 is under 20 µM. Moreover, the IC50 on EN PA was under 100 nM.

Consider `CNC(=O)c1nn(CC2(n3c(C)cc4cccnc43)CCCC2)cc(O)c1=O` [Compound 790], for which the EC50 in assay [1] was under 20 µM. In addition, the IC50 at EN PA is under 100 nM.

Take `CCCC(Cn1cc(O)c(=O)c(C(=O)NC)n1)n1cc(C)c2cccnc21` (stereo not shown) [Compound 791]: the EC50 in assay [1] was under 20 µM. For the same compound, at EN PA, the IC50 is 100 to 1000 nM.

As for `Cc1cn(C2(Cn3cc(O)c(=O)c(C(=O)NC(C)(C)C)n3)CCCC2)c2ncccc12` [Compound 792], the EC50 in assay [1] is under 20 µM. Moreover, the IC50 on EN PA was under 100 nM.

With `CNC(=O)c1nn(CC2(n3cc(C)c4cccnc43)CCCC2)cc(OC(=O)OC(C)C)c1=O` [Compound 793], in assay [1], the EC50 is under 20 µM. On EN PA, the IC50 lay within 100 to 1000 nM.

For the compound `O=C(c1nn(CC2(n3cc(Cl)c4cccnc43)CCCC2)cc(O)c1=O)N1CCC1` [Compound 794], the EC50 in assay [1] was under 20 µM. In addition, at EN PA, the IC50 is under 100 nM.

With `CC(=O)c1nn(CC2(n3cc(C)c4cccnc43)CCCC2)cc(O)c1=O` [Compound 795], the EC50 in assay [1] was under 20 µM. In addition, on EN PA, the IC50 lay within 100 to 1000 nM.

`CC1(C)CCC(Cn2cc(O)c(=O)c(C(=O)NCc3ccccc3)n2)(c2ccccc2)C1` (stereo not shown) [Compound 796]: the EC50 in assay [1] is over 100 µM. The IC50 at EN PA lay within 100 to 1000 nM.

Consider `CC1(C)CCC(Cn2cc(O)c(=O)c(C(=O)NCc3ccc(F)c(Cl)c3)n2)(c2ccccc2)C1` (stereo not shown) [Compound 797], for which the EC50 in assay [1] was under 20 µM. Further, the IC50 at EN PA fell in the range of 100 to 1000 nM.

`CC1(C)CC(Cn2cc(O)c(=O)c(C(=O)NCc3ccccc3)n2)(c2ccccc2)C1` [Compound 798]: in assay [1], the EC50 is over 100 µM. In addition, the IC50 at EN PA lay in the range of 100 to 1000 nM.

Take `CC1(C)CC(Cn2cc(O)c(=O)c(C(=O)NCc3ccc(F)c(Cl)c3)n2)(c2ccccc2)C1` [Compound 799]: the EC50 in assay [1] is under 20 µM. Besides, the IC50 at EN PA is under 100 nM.

As for `CNC(=O)c1nn(CC2(c3cc(F)cc(C(F)(F)F)c3)CCCC2)cc(O)c1=O` [Compound 800], the EC50 in assay [1] was under 20 µM. The IC50 at EN PA is under 100 nM.

Consider `CNC(=O)c1nn(CC2(n3cc(C)c4cccnc43)CCCC2)cc(OC(=O)OCC(C)(C)C)c1=O` [Compound 801], for which the EC50 in assay [1] is under 20 µM. In addition, at EN PA, the IC50 was under 100 nM.

For `CNC(=O)c1nn(CC2(n3cc(C)c4cccnc43)CCCCC2)cc(OC(=O)OC(C)(C)C)c1=O` [Compound 806], the EC50 in assay [1] was under 20 µM. Besides, on EN PA, the IC50 was under 100 nM.

For `O=C(NCc1ccccc1)c1nn(CC2(c3cccnc3)CCCC2)cc(O)c1=O` [Compound 807], the EC50 in assay [1] was under 20 µM. Further, at EN PA, the IC50 was under 100 nM.

On to `CNC(=O)c1nn(CC2(n3ccc4cccc(C)c43)CCCC2)cc(O)c1=O` [Compound 808], for which, in assay [1], the EC50 was under 20 µM. The IC50 at EN PA was under 100 nM.

Take `O=C(NCc1ccc(F)c(Cl)c1)c1nn(CC2(c3ccncc3)CCCC2)cc(O)c1=O` [Compound 809]: the EC50 in assay [1] is under 20 µM. Further, the IC50 at EN PA is under 100 nM.

For the compound `CNC(=O)c1nn(CC2(n3ccc4ccc(C)cc43)CCCC2)cc(O)c1=O` [Compound 810], the EC50 in assay [1] is under 20 µM. Moreover, the IC50 on EN PA was under 100 nM.

As to `O=C(NCc1ccccc1)c1nn(CC2(c3ccc(F)c(F)c3)CCCC2)cc(O)c1=O` [Compound 812], the EC50 in assay [1] was under 20 µM. The IC50 on EN PA was under 100 nM.

For `CNC(=O)c1nn(CC2(n3c4c(c5cccnc53)CCC4)CCCC2)cc(O)c1=O` [Compound 813], the EC50 in assay [1] is under 20 µM. In addition, the IC50 at EN PA was under 100 nM.

As to `CNC(=O)c1nn(CC2(n3cc(C)c4cccnc43)CCC2)cc(O)c1=O` [Compound 814], the EC50 in assay [1] is under 20 µM. The IC50 on EN PA is under 100 nM.

Take `CNC(=O)c1nn(CC2(n3ccc4cc(F)ccc43)CCCC2)cc(O)c1=O` [Compound 816]: the EC50 in assay [1] is under 20 µM. Further, the IC50 on EN PA was under 100 nM.

As for `CNC(=O)c1nn(CC2(n3ccc4cc(Cl)cnc43)CCCC2)cc(O)c1=O` [Compound 818], in assay [1], the EC50 is under 20 µM. For the same compound, the IC50 at EN PA was under 100 nM.

With `CC(C)(C)NC(=O)c1nn(CC2(n3ccc4cc(F)ccc43)CCCC2)cc(O)c1=O` [Compound 819], the EC50 in assay [1] was under 20 µM. For the same compound, at EN PA, the IC50 is under 100 nM.

For the compound `Cc1cn(C2(Cn3cc(O)c(=O)c(C(=O)NC(C)(C)CO)n3)CCCC2)c2ncccc12` [Compound 820], in assay [1], the EC50 is under 20 µM. Moreover, the IC50 on EN PA is under 100 nM.

On to `Cc1cn(C2(Cn3cc(O)c(=O)c(C(=O)NCC(C)C)n3)CCCC2)c2ncccc12` [Compound 821], for which the EC50 in assay [1] was under 20 µM. Further, the IC50 at EN PA was under 100 nM.

As to `Cc1cn(C2(Cn3cc(O)c(=O)c(C(=O)NCC4(CO)CCCC4)n3)CCCC2)c2ncccc12` [Compound 822], the EC50 in assay [1] is under 20 µM. The IC50 on EN PA was under 100 nM.
